# Measured values published in article PMC8954350, “Non-Canonical Cannabinoid Receptors with Distinct Binding and Signaling Properties in Prostate and Other Cancer Cell Types Mediate Cell Death” (International Journal of Molecular Sciences, 2022).
# Where “and” joins values, the source holds several entries; their conditions need not be identical. Equal values may be shown once. Marks after values point to notes of the source that are not given here.
# Columns and labels:
# [1] = test system: CBRs expressed in DU-145 membranes; assay type: biochemical, human; settings: 10 μM
# Protocol: (§1) Non-specific binding was defined as radioactivity remaining in the presence of 10 μM of non-radioactive GTPγS and subtracted from total binding to determine specific [^35S]GTPγS binding. All binding reactions were conducted in triplicate, in a final volume of 1 mL, and, following mixing, were incubated for 30 min at 30 °C. After incubation, reactions were terminated by rapid vacuum filtration through Whatman GF/B glass fiber filters (Brandel; Gaithersburg, MD, USA), followed by three washes of 4 mls of ice-cold filtration buffer (50 mM Tris, pH 7.4, and 0.05% bovine serum albumin). Samples were punched out from filter papers into scintillation vials, to which 4 mls of ScintiverseTM-BDR cocktail scintillation fluid (Fisher Scientific; Hampton, NH, USA) was added. Filters were incubated at room temperature for 24 h in scintillation fluid, vortexed, and radioactivity (measured as DPMs) was determined via a liquid scintillation spectrophotometer (Tri Carb 2100 TR Liquid Scintillation Analyzer, Packard Instruments, Meriden, CT, USA).
# [2] = test system: CBRs expressed in PC-3 cells; assay: Adenylyl cyclase modulation in whole PC-3 cells; assay type: cell-based, human; settings: 10 μM, with or without pertussis toxin
# Protocol: (§2) These experiments were conducted to examine modulation of adenylyl cyclase activity by cannabinoid ligands in prostate cancer cell lines DU-145 and PC-3, as described earlier. CHO-hCB2, DU-145, or PC-3 cells were seeded into 24 well plates at a density of 8 × 10^6 cells per plate in growth media (DMEM for DU-145 and CHO-hCB2 cells or F12-K for PC-3 cells). Growth media contained FetalPlex (10%) and 1% pennicillin/streptomycin. Cells were cultured overnight in a humidified incubator maintained at 37 °C with 5% CO2. For some experiments, a subset of wells were treated overnight with pertussis toxin (2 μL/mL) to abolish Gi/Go protein-mediated signaling. Following overnight incubation, growth media was replaced with an incubation media containing either DMEM (for DU-145 and CHO-hCB2) or F12-K (for PC-3) with 0.9 g/l NaCl, 2.5 μCi/mL of [^3H]adenine, and 0.5 mM IBMX, and cells were kept in a humidified incubator maintained at 37 °C with 5% CO2 for 4 h. […] Finally, 10 mL of Scintiverse^TM BD Cocktail scintillation fluid (Fisher Scientific; Hampton, NH, USA) was added to eluates and radioactivity (quantified as DPMs) was quantified via a liquid scintillation spectrophotometer (Tri Carb 2100 TR Liquid Scintillation Analyzer, Packard Instruments, Meriden, CT, USA).
# [3] = test system: DU-145 cells; assay: Mitochondrial membrane potential (JC-1 staining), DU-145 cells; assay type: cell-based, human; settings: 24 h; for mitochondrial membrane potential (MMP) depolarization: JC-1
# [4] = test system: CBRs expressed in PC-12 cells; assay: [^3H]CP-55,940 competitive binding screen, PC-12 membranes; parameters: species or system rat; settings: 1 μM ligand, 0.2 nM radioligand
# Protocol: as §1, with “The assay” for “Non-specific binding”, “conducted” for “defined”, “previously detailed. […]” for “radioactivity remaining in the presence of 10 μM of non-radioactive GTPγS and subtracted from total binding to determine specific [^35S]GTPγS binding.”, “20” for “30”, “in a 37 °C water bath to achieve equilibrium.” for “at 30 °C.”, “quantified” for “determined”
# [5] = test system: CBRs expressed in DU-145 cells; assay: Adenylyl cyclase modulation in whole DU-145 cells; assay type: cell-based, human; settings: 10 μM, with or without pertussis toxin
# Protocol: as §2
# [6] = molecular target: CBRs expressed in PC-3 membranes; assay type: binding, human
# Protocol: (§3) The assay was performed as previously detailed. […] All binding reactions were conducted in triplicate, in a final volume of 1 mL, and, following mixing, were incubated for 20 min in a 37 °C water bath to achieve equilibrium. After incubation, reactions were terminated by rapid vacuum filtration and processed for radioactivity, as detailed in Section 4.5.1.
# (§4) Curve-fitting and all statistical analyses were performed using GraphPad Prism® v8.0g (GraphPad Software, Inc.; San Diego, CA, USA). […] For CBR screening studies, a one-sample t-test was performed to determine differences from 100% (e.g., to quantify compounds producing displacement), followed by a one-way ANOVA and Tukey’s post hoc tests to compare displacement produced by all drugs. […] To compare specific CBR affinity (Ki) between ligands, non-linear regression analysis was employed to determine experimental IC50 values from competition receptor binding assays, which were then converted to Ki values using the Cheng–Prusoff equation [35]. Ki values were converted to pKi values so that parametric tests could be used and statistically compared by employing a one-way ANOVA followed by Tukey’s post hoc test. For statistical analyses of [^35S]GTPγS, adenylyl cyclase, and chronic experiments, a one-sample t-test was performed to detect differences from 100% (e.g., basal levels), followed by comparison of all means by a one-way ANOVA and Tukey’s post hoc test. For LDH release, ATP-dependent cell viability and JC-1 staining assays, drug effects were first analyzed by a one-sample t-test to determine differences from 0 or 100% (vehicle), followed by a one-way ANOVA and Dunnett’s post hoc test to compare all means. Significance for all statistical tests was defined at a minimal level of p < 0.05.
# [7] = molecular target: CBRs expressed in DU-145 membranes; assay type: binding, human
# Protocol: as §3, §4
# [8] = molecular target: T1, human CB2 receptors (Homo sapiens, UniProt P34972); assay: Competition binding, CHO-hCB2 membranes; settings: membranes from CHO cells stably expressing human CB2
# T1 construct: expressed in transfected cells
# T1 sequence (P34972 whole entry): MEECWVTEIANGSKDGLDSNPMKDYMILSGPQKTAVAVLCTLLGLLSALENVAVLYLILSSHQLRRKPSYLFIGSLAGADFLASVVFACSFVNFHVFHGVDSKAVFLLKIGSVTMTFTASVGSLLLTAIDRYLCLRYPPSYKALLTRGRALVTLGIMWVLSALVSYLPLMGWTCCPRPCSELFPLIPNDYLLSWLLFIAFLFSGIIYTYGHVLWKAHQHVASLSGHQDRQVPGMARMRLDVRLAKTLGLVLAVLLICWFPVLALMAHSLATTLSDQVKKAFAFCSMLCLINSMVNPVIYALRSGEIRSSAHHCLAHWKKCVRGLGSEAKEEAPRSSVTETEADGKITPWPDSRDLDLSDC
# Protocol: as §3
# as §4, with “Ki values were converted to pKi values so that parametric tests could be used and statistically compared by employing a one-way ANOVA followed by Tukey’s post hoc test. For statistical analyses of [^35S]GTPγS, adenylyl cyclase, and chronic experiments, a one-sample t-test was performed to detect differences from 100% (e.g., basal levels), followed by comparison of all means by a one-way ANOVA and Tukey’s post hoc test.” left out, “Significance for all statistical tests was defined at a minimal level of p < 0.05.” left out
Compound,decrease in [^35S]GTPγS binding below basal levels [1] [%],modulation of [^35S]GTPγS binding [1],change in forskolin-stimulated intracellular cAMP levels [2],mitochondrial membrane potential (MMP) depolarization ([3]; 10 μM),mitochondrial membrane potential (MMP) depolarization ([3]; 50 μM),"displacement of [^3H]CP-55,940 [4]",change in forskolin-stimulated intracellular cAMP levels [5],MMP on co-incubation with GW-405833 (10 μM) ([3]; 10 μM ligand co-incubated),Ki [6] [nM],Ki [7],pKi (−log Ki) [7],pKi (−log Ki) [6],Ki [8] [nM]
"Cc1c(C(=O)c2cccc3ccccc23)c2cccc3c2n1[C@H](CN1CCOCC1)CO3 [WIN-55,212-2]",15.3 ± 1.6,neither the agonist at canonical CB1/CB2 receptors WIN-55-212-2 (10 μM) nor the CB2-selective agonist GW-405-833 (10 μM) increased [^35S]GTPγS binding,neither WIN-55-212-2 nor rimonabant significantly altered intracellular cAMP levels,produced effects only at 50 μM,produced effects only at 50 μM,"neither the non-selective CBR ligand CP-55,940 nor WIN-55,212-2 produced significant displacement",neither WIN-55-212-2 nor rimonabant significantly altered intracellular cAMP levels,–,–,–,–,–,–
Cc1c(C(=O)NN2CCCCC2)nn(-c2ccc(Cl)cc2Cl)c1-c1ccc(Cl)cc1 [rimonabant],–,did reduce [^35S]GTPγS binding below basal levels,neither WIN-55-212-2 nor rimonabant significantly altered intracellular cAMP levels,reduced MMP,–,–,neither WIN-55-212-2 nor rimonabant significantly altered intracellular cAMP levels,MMP was not significantly reduced from vehicle-treated levels,54.1,102 nM,7.04 ± 0.15 ^a,–,–
COc1ccc2c(c1)c(CCN1CCOCC1)c(C)n2C(=O)c1cccc(Cl)c1Cl [GW-405833],–,neither the agonist at canonical CB1/CB2 receptors WIN-55-212-2 (10 μM) nor the CB2-selective agonist GW-405-833 (10 μM) increased [^35S]GTPγS binding,–,–,–,–,–,–,296,~290 nM and 290 nM,6.5 ± 0.12 ^b,6.47 ± 0.17 ^b,51
